Like-named read-outs stand apart in the source and are kept apart here.
What was measured:
174CEM.T2 cells = experiment: Primary CTL response induction with p53 peptide loaded 174CEM.T2 cells and HLA-A2.1 positive PBL; type: cell-based, human; details: PBL from healthy non-immunized HLA-A2.1 positive donor; peptide 80 μg/ml
Description: 174CEM.T2 (T2) cells in a concentration of 2×10^6 per ml were incubated for 13 hours at 37° C. in a T25 flask (Falcon, Becton & Dickinson, Plymouth, England, cat. no. 3013) in serum-free Iscove's medium (Biochrom KG, Seromed, Berlin, Gemany, cat. no. F0465) with glutamine (2 mM, ICN Biochemicals Inc., Costa Mes, Calif., U.S.A., cat. no. 15-801-55) and antibiotics as mentioned under 2 and p53 peptide at a final concentration of 80 μg/ml. Subsequently the T2 cells were spun down and treated at a density of 20×10^6 cells/ml with Mitomycin C (final concentration 50 μg/ml) in serum-free RPMI 1640 (manufacturer see 2) medium during one hour at 37° C. Thereafter the T2 cells were washed three times im RPMI 1640. Primary CTL responses were induced by filling all wells of a 96-well-U-bottom plate (Costar, Cambridge, Mass., U.S.A., cat. no. 3799) with 1×10^5 Mitomycin-C treated T2 cells in 50 μl of medium (serum-free RPMI 1640 containing glutamine and antibiotics as mentioned before), containing peptide at a concentration of 80 μg/ml. To these stimulator cells were added 4×10^5 HLA-A2.1 positive PBL in 50 μl of medium to each well. Stimulator and responder cells were cocultured for 7 days at 37° C. in an humidified incubator (90% humidity) and 5% CO2 in air.
On days 7 and 14 after primary response induction (see 5) the PBL (responder cells) were restimulated with peptide. […]

T2 cells = experiment: 51Cr release cytotoxicity assay of p53 peptide specific CTL clones on peptide loaded T2 target cells; type: cell-based, human; details: peptide titration
Description: As target cells served T2 cells, labeled with 100 μCi ^51 Cr for 1 h at 37° C. […] The target cells were washed once more before adding them to the effector cells. Effector target ratio ranged from 20:1 to 2.5:1 in twofold dilution. […] Total duration of the incubation time was 4 h at 37° C.
The percentage ^51 Cr release was calculated by the formula: [formula] 7. Cloning of CTL by limiting dilution
The clones were tested for specificity on peptide loaded ^51 Cr labeled target cells ranging from E/T 20 to E/T 2.5 in twofold dilution steps.

target cells = details: references 26 and 12; cited from earlier work
RMA-S cells = experiment: Induction of primary CTL responses in vitro with peptide-loaded RMA-S cells; type: cell-based, murine; details: for Induction of primary CTL response by peptide-loaded RMA-S cells: NWP SC of unprimed B6 mice, 5-day culture, RMA-S as stimulator cells
Description: (§1) RMA-S or RMA cells were pre-cultured for 36 h at 22° C. or 37° C. in IMDM medium supplemented with 2% human pooled serum, penicillin (100 IU/ml), kanamycin (100 μg/ml), S and 2-ME (2×10^-5 M). […] Without further washing these (peptide-loaded) RMA-S cells were incubated 1:1(v/v) with C57BL/6 nylon wool-passed spleen cells (B6 NWP SC) in 24-well culture plates: 4×10^6 responder cells and 1×10^6 stimulator cells in 1 ml of culture medium per well in IMDM medium supplemented with 10% FCS, penicillin (100 IU/ml), kanamycin (100 μg/ml), and 2-ME(2×10^-5 M). For a primary CTL response NWP SC of non-immunized C57BL/6 mice were used.
(§2) After 5 days of culture the effectors were harvested on a lymphoprep (Nycomed Pharma, Oslo, Norway) gradient and tested for cytotoxic function on 2000 ^51 Cr-labeled target cells ranging from E/T 50 to E/T 0.8 in twofold dilution steps. The percentage specific ^51 Cr release was calculated by the formula: [formula]
Background (medium) release was always <25% of maximal (2% Triton X-100) release. The SE of triplicate culture was always <5% specific ^51 Cr release. Cytolytic activity calculated from individual dose-response curves is expressed as lytic units per 10^6 effector cells. Calculations were performed using linear regression. As target cells served: B6 mouse embryo cells, treated for 2 days with 50 U/ml IFN-γ at 37° C., LPS-induced (30 μg/ml LPS-B, Bacto Lab., Difco, Detroit, Mich., added to spleen cells for 5 days at 37° C.) B cell blasts from C57BL/6 mice (LPS) or EL4 cell (thymoma cell line of C57BL/6 origin, expressing K^b and Db). […] Virus-infected target cells were prepared by incubating 10^7 target cells with 300 HAU of nonvirulent Sendai virus in 1 ml of medium for 1 h or 12 h before labeling with ^51 Cr (28).
Induction of primary CTL responses in vitro with peptide-loaded RMA-S cells. NWP SC of B6 unprimed mice were stimulated 1:1 (v/v) once in vitro with RMA-S cells, pre-cultured for 36 h at 22° C., only or incubated with 50 μM A16 peptide or 50 μM S16 peptide. Peptide was present during the 5-day culture at 25 μM concentration. The effectors were harvested and tested on B6 mouse embryo cells (MEC) and B6 LPS-induced B cell blasts (LPS) as target cells, without or with 50 μM A16 and S16, respectively.
Peptide titration at induction level (A) and at target level (B) of primary CTL induced by peptide-loaded RMA-S cells.
Primary and secondary CTL responses induced by peptide-loaded RMA-S cells. For primary CTL responses NWP SC of B6 unprimed mice were used (A and B). For secondary CTL responses NWP SC of B6 mice were primed once i.p. with non-virulent Sendai virus (C and D).

RMA cells = experiment: Induction of primary CTL responses with peptide-loaded parental RMA cells; type: cell-based, murine; details: any peptide concentration, pre-culture at 22° C. or 37° C.
Description: as §1, §2
Background (medium) release was always <25% of maximal (2% Triton X-100) release. The SE of triplicate culture was always <5% specific ^51 Cr release. Cytolytic activity calculated from individual dose-response curves is expressed as lytic units per 10^6 effector cells. Calculations were performed using linear regression. […]

[1] = tested on: MHC class I molecules (H-2) on RMA and RMA-S cells; experiment: Direct peptide binding studies with 125I-labeled S9 on RMA and RMA-S cells; design: species or system murine
Description: RMA and RMA-S cells were cultured for 36 h at 26° C. in Iscove's medium supplemented with 2% human pooled serum. […] MHC class I molecules were immunoprecipitated using rabbit anti-H-2^b serum (29). Class I-associated peptide was quantitated by γ-spectrometry. For determination of H-2 levels 10^6 cells were iodinated using lactoperoxidase-catalyzed iodination. Subsequently cells were washed three times in PBS and lysed in TRITON X-100 lysis buffer. H-2 antigens were precipitated from equal amounts of trichloro-acetic acid (TCA)-precipitable counts (30) using rabbit anti-H-2^b serum (29). Immunoprecipitates were analysed by SDS-PAGE on 12% gels, and gels were exposed to Kodak (Rochester, N.Y.) X-AR5 (photographic film) films. Results were expressed in arbitrary units. One unit is defined as the level of cell surface H-2 per cell and peptide binding per cell, respectively on RMA cells.
Direct peptide binding studies on RMA and RMA-S cells. […] MHC class I molecules were immunoprecipitated using rabbit anti-H-2^b serum. Class I-associated peptide was quantitated by γ-spectrometry. Results are means of duplicate experiments and shown in dpm after subtraction of normal serum control precipitates (A). In (B) 26° C. pre-cultured RMA and RMA-S cells were surface iodinated and H-2 antigens were precipitated from equal amounts of TCA-precipitable counts using rabbit anti-H-2^b serum. The amount of cell surface H-2 on RMA-S cells is depicted relative to the amount on […]. […] The amount of class I-associated peptide on RMA-S cells is depicted relative to the amount on RMA-S cells, which is set at 1 arbitrary unit. Similar results were obtained in three independent experiments.

Sendai virus = details: reference 12, cited from earlier work
HLA-A2.1 = biological target: T1, HLA-A2.1 (Homo sapiens, UniProt P04439); experiment: Peptide binding to HLA-A2.1 on (174.CEM) T2 cells; details: 200 μg/ml peptide, BB7.2 immunofluorescence
T1 construct: detected by antibody BB7.2
T1 sequence (P04439 25-365): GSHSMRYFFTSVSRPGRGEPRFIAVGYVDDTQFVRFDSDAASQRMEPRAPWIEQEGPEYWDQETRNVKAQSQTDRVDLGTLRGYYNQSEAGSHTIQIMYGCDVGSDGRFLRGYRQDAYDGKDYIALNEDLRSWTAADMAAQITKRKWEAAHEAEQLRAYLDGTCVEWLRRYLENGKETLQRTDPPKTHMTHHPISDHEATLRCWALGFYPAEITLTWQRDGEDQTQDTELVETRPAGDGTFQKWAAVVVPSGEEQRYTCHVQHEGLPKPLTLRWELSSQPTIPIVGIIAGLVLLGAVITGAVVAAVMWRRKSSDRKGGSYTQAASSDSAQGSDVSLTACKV
T1 sequence (P61769 21-119 partner): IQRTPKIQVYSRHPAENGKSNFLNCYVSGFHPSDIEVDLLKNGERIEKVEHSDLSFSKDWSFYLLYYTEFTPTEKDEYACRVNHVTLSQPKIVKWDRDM
Description: Of this suspension 40 μl was put into a V bottomed 96 well plate (Greiner GmbH, Frickenhausen, Germany: 651101) together with 10 μl of the individual peptide dilutions (of 1 mg/ml). […] After a centrifuge round of 1200 rpm the pellet was resuspended in 50 μl of saturating amounts of HLA-A2.1 specific mouse monoclonal antibody BB7.2 for 30 minutes at 4° C.

[2] = 700 nM 125I-S9, 1 h, 26° C., FIG. 4B

For `CC(C)C[C@H](NC(=O)[C@@H](N)CC(C)C)C(=O)NCC(=O)N[C@@H](CCCNC(=N)N)C(=O)N[C@@H](CC(N)=O)C(=O)N[C@@H](CO)C(=O)N[C@@H](Cc1ccccc1)C(=O)N[C@@H](CCC(=O)O)C(=O)N[C@H](C(=O)O)C(C)C` [A8], the “Generation of CTL response against autologous peptide in vitro” value (174CEM.T2 cells) was “possible to generate a CTL response against an autologous peptide” and the “peptide concentration sufficient for target cell sensitization” value (T2 cells) was 20 ng/mL.

In the case of “CDSGPSNTPPEIHPW (CDSGPSNTPPEIHPVV) [A16]”, the “Sensitization of target cells for lysis by CTL” value (target cells) is listed as “sensitize target cells for lysis by a CTL clone” and the “Induction of primary CTL response by peptide-loaded RMA-S cells” value (RMA-S cells) is listed as “Primary CTL responses could be induced”.

For “FAPGNYPAL [S9, Sendai virus nucleoprotein peptide of 9 aa]”, the “Induction of primary CTL response by peptide-loaded RMA cells” value (RMA cells) was “non-stimulatory”, the “minimally required concentration for primary response induction by peptide-loaded RMA-S cells” value (RMA-S cells; FIG. 3A and B) was 1 µM and the “Induction of primary CTL response by peptide-loaded RMA-S cells” value (RMA-S cells) was “primary response was obtained only by stimulation of T cells with peptide-loaded RMA-S cells”. The “difference in peptide binding per cell between RMA and RMA-S cells” value [1, 2] was 2.5 fold, the “peptide binding per H-2 molecule on RMA-S cells versus RMA cells” value [1, 2] was “tenfold higher” and the “peptide concentration giving comparable binding, on RMA-S (26° C.)” value ([1]; comparable to RMA at 1 μM, FIG. 4A) was 1 nM. For the same compound, the “peptide concentration giving comparable binding, on RMA (26° C.)” value ([1]; comparable to RMA-S at 1 nM, FIG. 4A) was 1 µM and the “amount of peptide bound to RMA cells at 20 μM” value ([1]; compared with RMA-S cells at 1 μM) was “did not reach the amount of peptide bount to RMA-S cells observed at 1 μM”.

In the case of HGEFAPGNYPALWSYA [S16], the “Sensitization of target cells for lysis by CTL” value (target cells) is given as “sensitize target cells for lysis by specific H-2K^b -restricted CTL”, the “Induction of CTL memory in vivo by vaccination with peptide” value (Sendai virus) is given as “induces CTL memory in vivo” and the “Protection against lethal Sendai virus infection” value (Sendai virus) is given as “induce protective immunity against a lethal Sendai virus infection”. For the same compound, the “Protection against lethal Sendai virus infection” value (Sendai virus; listed as Sendai virus 16-mer peptide) was “protection against otherwise lethal Sendai virus doses” and the “Induction of primary CTL response by peptide-loaded RMA-S cells” value (RMA-S cells) was “Primary CTL responses could be induced”.

In the case of RMPEAAPPV [D6], the “Binding to HLA-A2.1” value (HLA-A2.1) is reported as “bind to the HLA-A2.1 molecule”.

Reference: patent US5731160A, “Induction of antigen specific T-lymphocyte responses by stimulation with peptide loaded MHC class I molecules on antigen processing defective mammalian cell lines” (Rijksuniversiteit Leiden, priority 1992, dated 1998)
